# Measurements: ChEMBL document CHEMBL1938373, “Structure-based design, synthesis and biological evaluation of N-pyrazole, N'-thiazole urea inhibitors of MAP kinase p38α” (Eur J Med Chem, 2012)
# Active and inactive are the calls of the source. The rule behind the calls is not given here.
# Columns and labels:
# [1] = molecular target: T1, Mitogen-activated protein kinase 14 (Homo sapiens, UniProt Q16539)
# [2] = molecular target: T1, Mitogen-activated protein kinase 14; assay: Inhibition of N-terminus His-tagged human p38alpha expressed in Escherichia coli BL21 DE3 using GST-tagged ATF2 as substrate after 90 mins by HTRF assay
# [3] = molecular target: T1, Mitogen-activated protein kinase 14; assay: Inhibition of p38alpha-mediated MK2 phosphorylation in anisomysin-stimulated human HeLa cells at 0.5 to 50 uM after 2 hrs by immunoblot analysis; assay type: cell-based
# [4] = molecular target: T1, Mitogen-activated protein kinase 14; assay: Binding affinity to N-terminus His-tagged human p38alpha expressed in Escherichia coli BL21 DE3 at 1 nM to 10 uM after 5 hrs by fluorescence analysis
# [5] = Solubility of the compound; assay type: physicochemical
# [6] = molecular target: T1, Mitogen-activated protein kinase 14; assay: Inhibition of p38alpha-mediated MK2 phosphorylation in anisomysin-stimulated human HeLa cells after 2 hrs by immunoblot analysis
# T1 sequence (Q16539 whole entry): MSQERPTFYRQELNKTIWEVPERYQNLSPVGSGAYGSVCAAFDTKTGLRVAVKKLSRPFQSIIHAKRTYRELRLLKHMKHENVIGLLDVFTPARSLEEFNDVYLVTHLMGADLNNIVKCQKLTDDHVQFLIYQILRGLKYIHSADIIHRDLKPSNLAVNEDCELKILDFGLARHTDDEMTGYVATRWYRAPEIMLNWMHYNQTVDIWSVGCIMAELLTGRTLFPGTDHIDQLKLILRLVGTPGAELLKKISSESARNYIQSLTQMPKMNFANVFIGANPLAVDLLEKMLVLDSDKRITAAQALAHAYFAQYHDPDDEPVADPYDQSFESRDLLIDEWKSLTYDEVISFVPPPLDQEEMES
Compound,Kd [1],other results
Cc1ccc(-n2nc(C(C)(C)C)cc2NC(=O)Nc2nccs2)cc1,990 nM,
NC(COCc1ccccc1)c1csc(NC(=O)Nc2ccc(Cl)c(F)c2)n1 (stereo not drawn),13400 nM,
O=C(O)Cc1cccc(-n2nc(C3CCCC3)cc2NC(=O)Nc2nc(CCOCc3ccccc3)cs2)c1,580 nM,
O=C(Nc1nc(CCOCc2ccccc2)cs1)c1cc(F)cc(N2CCOCC2)c1,,Activity [4]: inactive
O=C(Nc1ccc(Cl)c(C(F)(F)F)c1)Nc1nc(CCOCc2ccccc2)cs1,,solubility [5]: Insoluble
CC(C)(C)c1cc(NC(=O)Nc2nc(CCOCc3ccccc3)cs2)n(-c2cccc(CC(=O)O)c2)n1,920 nM,
Cc1ccc(-n2nc(C(C)(C)C)cc2NC(=O)Nc2nc(CCOCc3ccccc3)cs2)cc1,382 nM,
Cc1ccc(-n2nc(C(C)(C)C)cc2NC(=O)Nc2nc(CCOCc3ccc(F)cc3)cs2)cc1,303 nM,
CCOC(=O)Cc1ccc(-n2nc(C(C)(C)C)cc2NC(=O)Nc2nccs2)cc1,675 nM,IC50 [6]: 6000 nM; IC50 [2]: 639 nM

# Continued by falling Kd [1], values first:
Kd [1],Compound,other results
14700 nM,O=C(O)Cc1cccc(-n2nc(C3CC3)cc2NC(=O)Nc2nc(CCOCc3ccccc3)cs2)c1,
901 nM,O=C(O)Cc1ccc(-n2nc(C3CCCC3)cc2NC(=O)Nc2nc(CCOCc3ccccc3)cs2)cc1,
586 nM,Cc1ccc(-n2nc(C(C)(C)C)cc2NC(=O)Nc2nc(CCOCc3ccncc3)cs2)cc1,
287 nM,CC(C)(C)c1cc(NC(=O)Nc2nc(CCOCc3ccccc3)cs2)n(-c2ccc(CC(=O)O)cc2)n1,
196 nM,CC(C)(C)c1cc(NC(=O)Nc2nccs2)n(-c2ccc(CC(=O)O)cc2)n1,IC50 [2]: 135 nM; inhibition [3]: inactive
